Reference: PubChem BioAssay (NCI)
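48-hour exposure; five concentrations; linearly interpolated endpoints. GI50 marks 50% less growth. TGI: total growth inhibition.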

Tests used:
Assay in all cases: growth of human tumour cells (NCI), 48 h
ACHN renal = system: ACHN renal
CAKI-1 renal = system: CAKI-1 renal
DU-145 prostate = system: DU-145 prostate
EKVX NSCLC = system: EKVX NSCLC
HCC-2998 colon = system: HCC-2998 colon
HCT-116 colon = system: HCT-116 colon
HL-60(TB) leukemia = system: HL-60(TB) leukemia
HS 578T breast = system: HS 578T breast
MALME-3M melanoma = system: MALME-3M melanoma
MOLT-4 leukemia = system: MOLT-4 leukemia
OVCAR-5 ovarian = system: OVCAR-5 ovarian
RPMI-8226 leukemia = system: RPMI-8226 leukemia
SF-268 CNS = system: SF-268 CNS
SF-539 CNS = system: SF-539 CNS
SK-MEL-2 melanoma = system: SK-MEL-2 melanoma
SK-OV-3 ovarian = system: SK-OV-3 ovarian
SNB-19 CNS = system: SNB-19 CNS
SNB-75 CNS = system: SNB-75 CNS
SR leukemia = system: SR leukemia
T-47D breast = system: T-47D breast
TK-10 renal = system: TK-10 renal
UACC-257 melanoma = system: UACC-257 melanoma
UO-31 renal = system: UO-31 renal
786-0 renal = system: 786-0 renal
A549 NSCLC = system: A549 NSCLC
BT-549 breast = system: BT-549 breast
CCRF-CEM leukemia = system: CCRF-CEM leukemia
COLO 205 colon = system: COLO 205 colon
HCT-15 colon = system: HCT-15 colon
HOP-62 NSCLC = system: HOP-62 NSCLC
HT29 colon = system: HT29 colon
IGROV1 ovarian = system: IGROV1 ovarian
K-562 leukemia = system: K-562 leukemia
KM12 colon = system: KM12 colon
MDA-MB-231 breast = system: MDA-MB-231 breast
NCI-H226 lung = system: NCI-H226 lung
NCI-H23 lung = system: NCI-H23 lung
NCI-H460 lung = system: NCI-H460 lung
NCI-H522 lung = system: NCI-H522 lung
NCI/ADR-RES ovarian = system: NCI/ADR-RES ovarian
OVCAR-3 ovarian = system: OVCAR-3 ovarian
OVCAR-8 ovarian = system: OVCAR-8 ovarian
RXF 393 renal = system: RXF 393 renal
SK-MEL-28 melanoma = system: SK-MEL-28 melanoma
SK-MEL-5 melanoma = system: SK-MEL-5 melanoma
SW-620 colon = system: SW-620 colon
UACC-62 melanoma = system: UACC-62 melanoma
HOP-92 NSCLC = system: HOP-92 NSCLC
LOX IMVI melanoma = system: LOX IMVI melanoma
M14 melanoma = system: M14 melanoma
MCF7 breast = system: MCF7 breast
MDA-MB-435 = system: MDA-MB-435
OVCAR-4 ovarian = system: OVCAR-4 ovarian
PC-3 prostate = system: PC-3 prostate
SF-295 CNS = system: SF-295 CNS
SN12C renal = system: SN12C renal
U251 CNS = system: U251 CNS

`CCCCC(=O)OC[n+]1ccc2c(C)c3[nH]c4ccc(OC)cc4c3c(C)c2c1` was tested, and the TGI (ACHN renal) was 3.84 µM, the TGI (CAKI-1 renal) was 4.64 µM and the TGI (DU-145 prostate) was 4.82 µM. The TGI (EKVX NSCLC) was 3.6 µM, the TGI (HCC-2998 colon) was 1800 nM and the TGI (HCT-116 colon) was 1.37 µM. For the same compound, the TGI (HL-60(TB) leukemia) was over 100 µM, the TGI (HS 578T breast) was 2730 nM and the TGI (MALME-3M melanoma) was over 33.3 µM. For the same compound, the TGI (MOLT-4 leukemia) was 1.13 µM, the TGI (OVCAR-5 ovarian) was 5.61 µM and the TGI (RPMI-8226 leukemia) was 983 nM. For the same compound, the TGI (SF-268 CNS) was over 100 µM, the TGI (SF-539 CNS) was 1.92 µM and the TGI (SK-MEL-2 melanoma) was over 100 µM. The TGI (SK-OV-3 ovarian) was 2.93 µM, the TGI (SNB-19 CNS) was 4.35 µM and the TGI (SNB-75 CNS) was 27.2 µM. For the same compound, the TGI (SR leukemia) was 1040 nM, the TGI (T-47D breast) was 14.2 µM and the TGI (TK-10 renal) was 15.2 µM. It also gave a TGI (UACC-257 melanoma) of over 34.4 µM and a TGI (UO-31 renal) of 4.08 µM.

Compound `CC(C)(C)c1ccc(O)c(C(O)c2cccnc2)c1` (configuration not stated) has a TGI (786-0 renal) of over 100 µM, a TGI (A549 NSCLC) of over 100 µM and a TGI (ACHN renal) of over 100 µM. The TGI (BT-549 breast) was over 100 µM, the TGI (CAKI-1 renal) was over 100 µM and the TGI (CCRF-CEM leukemia) was over 100 µM. For the same compound, the TGI (COLO 205 colon) was over 100000 nM, the TGI (DU-145 prostate) was over 100 µM and the TGI (EKVX NSCLC) was over 100 µM. It also gave a TGI (HCC-2998 colon) of over 100000 nM, a TGI (HCT-116 colon) of over 100 µM and a TGI (HCT-15 colon) of over 100 µM. It also gave a TGI (HOP-62 NSCLC) of over 100 µM, a TGI (HS 578T breast) of over 100000 nM and a TGI (HT29 colon) of over 100 µM. The TGI (IGROV1 ovarian) was over 100 µM, the TGI (K-562 leukemia) was over 100 µM and the TGI (KM12 colon) was over 100 µM. For the same compound, the TGI (MALME-3M melanoma) was over 100 µM, the TGI (MDA-MB-231 breast) was over 100 µM and the TGI (MOLT-4 leukemia) was over 100 µM. It also gave a TGI (NCI-H226 lung) of over 100 µM, a TGI (NCI-H23 lung) of over 100 µM and a TGI (NCI-H460 lung) of over 100 µM. For the same compound, the TGI (NCI-H522 lung) was over 100 µM, the TGI (NCI/ADR-RES ovarian) was over 100 µM and the TGI (OVCAR-3 ovarian) was over 100 µM. It also gave a TGI (OVCAR-5 ovarian) of over 100 µM, a TGI (OVCAR-8 ovarian) of over 100 µM and a TGI (RXF 393 renal) of over 100000 nM. For the same compound, the TGI (SF-268 CNS) was over 100 µM, the TGI (SF-539 CNS) was over 100 µM and the TGI (SK-MEL-28 melanoma) was over 100 µM. For the same compound, the TGI (SK-MEL-5 melanoma) was over 100000 nM, the TGI (SNB-75 CNS) was over 100 µM and the TGI (SW-620 colon) was over 100 µM. It also gave a TGI (T-47D breast) of 53.7 µM, a TGI (UACC-62 melanoma) of over 100 µM and a TGI (UO-31 renal) of over 100 µM.

`CCC(C)CC(CC)NCCN1CCN(C(CC)CC(C)CC)C1=S` (configuration not stated) showed a GI50 (786-0 renal) of 1830 nM, a TGI (786-0 renal) of 3.3 µM and a GI50 (A549 NSCLC) of 1760 nM. It also gave a TGI (A549 NSCLC) of 3.37 µM, a GI50 (ACHN renal) of 1760 nM and a TGI (ACHN renal) of 3.14 µM. It also gave a GI50 (BT-549 breast) of 2390 nM, a TGI (BT-549 breast) of 4.52 µM and a GI50 (CAKI-1 renal) of 1800 nM. For the same compound, the TGI (CAKI-1 renal) was 3.66 µM, the GI50 (CCRF-CEM leukemia) was 1860 nM and the TGI (CCRF-CEM leukemia) was 4.98 µM. For the same compound, the GI50 (COLO 205 colon) was 1600 nM, the TGI (COLO 205 colon) was 2950 nM and the GI50 (DU-145 prostate) was 2170 nM. For the same compound, the TGI (DU-145 prostate) was 4.71 µM, the GI50 (EKVX NSCLC) was 1930 nM and the TGI (EKVX NSCLC) was 5.13 µM. It also gave a GI50 (HCC-2998 colon) of 1570 nM, a TGI (HCC-2998 colon) of 2900 nM and a GI50 (HCT-116 colon) of 1790 nM. For the same compound, the TGI (HCT-116 colon) was 3.27 µM, the GI50 (HCT-15 colon) was 1790 nM and the TGI (HCT-15 colon) was 3.4 µM. For the same compound, the GI50 (HL-60(TB) leukemia) was 1930 nM, the TGI (HL-60(TB) leukemia) was 3.77 µM and the GI50 (HOP-62 NSCLC) was 1820 nM. For the same compound, the TGI (HOP-62 NSCLC) was 3.21 µM, the GI50 (HOP-92 NSCLC) was 1050 nM and the TGI (HOP-92 NSCLC) was 2960 nM. It also gave a GI50 (HT29 colon) of 1670 nM, a TGI (HT29 colon) of 3.1 µM and a GI50 (IGROV1 ovarian) of 2230 nM. It also gave a TGI (IGROV1 ovarian) of 4.53 µM, a GI50 (KM12 colon) of 1710 nM and a TGI (KM12 colon) of 3.22 µM. For the same compound, the GI50 (LOX IMVI melanoma) was 1570 nM, the TGI (LOX IMVI melanoma) was 2910 nM and the GI50 (M14 melanoma) was 1790 nM. The TGI (M14 melanoma) was 3.25 µM, the GI50 (MALME-3M melanoma) was 1740 nM and the TGI (MALME-3M melanoma) was 3.19 µM. It also gave a GI50 (MCF7 breast) of 1630 nM, a TGI (MCF7 breast) of 2980 nM and a GI50 (MDA-MB-231 breast) of 1840 nM. For the same compound, the TGI (MDA-MB-231 breast) was 3.55 µM, the GI50 (MDA-MB-435) was 1770 nM and the TGI (MDA-MB-435) was 3.39 µM. The GI50 (MOLT-4 leukemia) was 2220 nM, the TGI (MOLT-4 leukemia) was 5.19 µM and the GI50 (NCI-H226 lung) was 1850 nM. It also gave a TGI (NCI-H226 lung) of 4.02 µM, a GI50 (NCI-H23 lung) of 1740 nM and a TGI (NCI-H23 lung) of 3.5 µM. It also gave a GI50 (NCI-H460 lung) of 2500 nM, a TGI (NCI-H460 lung) of 4.1 µM and a GI50 (NCI-H522 lung) of 1740 nM. It also gave a TGI (NCI-H522 lung) of 3.24 µM, a GI50 (NCI/ADR-RES ovarian) of 1660 nM and a TGI (NCI/ADR-RES ovarian) of 3.39 µM. The GI50 (OVCAR-3 ovarian) was 1970 nM, the TGI (OVCAR-3 ovarian) was 4.08 µM and the GI50 (OVCAR-4 ovarian) was 1590 nM. The TGI (OVCAR-4 ovarian) was 3.91 µM, the GI50 (OVCAR-5 ovarian) was 1720 nM and the TGI (OVCAR-5 ovarian) was 3.32 µM. For the same compound, the GI50 (OVCAR-8 ovarian) was 1660 nM, the TGI (OVCAR-8 ovarian) was 3.05 µM and the GI50 (PC-3 prostate) was 2050 nM. It also gave a TGI (PC-3 prostate) of 6.87 µM, a GI50 (RPMI-8226 leukemia) of 1850 nM and a TGI (RPMI-8226 leukemia) of 4250 nM. It also gave a GI50 (RXF 393 renal) of 1500 nM, a TGI (RXF 393 renal) of 2820 nM and a GI50 (SF-268 CNS) of 1920 nM. It also gave a TGI (SF-268 CNS) of 4.11 µM, a GI50 (SF-295 CNS) of 1860 nM and a TGI (SF-295 CNS) of 3.68 µM. For the same compound, the GI50 (SF-539 CNS) was 1970 nM, the TGI (SF-539 CNS) was 3.43 µM and the GI50 (SK-MEL-2 melanoma) was 1890 nM. For the same compound, the TGI (SK-MEL-2 melanoma) was 3.41 µM, the GI50 (SK-MEL-28 melanoma) was 1690 nM and the TGI (SK-MEL-28 melanoma) was 3.06 µM. The GI50 (SK-MEL-5 melanoma) was 1610 nM, the TGI (SK-MEL-5 melanoma) was 2950 nM and the GI50 (SK-OV-3 ovarian) was 1860 nM. For the same compound, the TGI (SK-OV-3 ovarian) was 3.36 µM, the GI50 (SN12C renal) was 2550 nM and the TGI (SN12C renal) was 7.83 µM. The GI50 (SNB-19 CNS) was 1730 nM, the TGI (SNB-19 CNS) was 3.87 µM and the GI50 (SNB-75 CNS) was 1490 nM. The TGI (SNB-75 CNS) was 2.82 µM, the GI50 (SR leukemia) was 1870 nM and the TGI (SR leukemia) was 4120 nM. It also gave a GI50 (SW-620 colon) of 1890 nM, a TGI (SW-620 colon) of 3.55 µM and a GI50 (T-47D breast) of 1720 nM. For the same compound, the TGI (T-47D breast) was 3.57 µM, the GI50 (TK-10 renal) was 3.16 µM and the TGI (TK-10 renal) was 11 µM. It also gave a GI50 (U251 CNS) of 1550 nM, a TGI (U251 CNS) of 2880 nM and a GI50 (UACC-257 melanoma) of 1650 nM. It also gave a TGI (UACC-257 melanoma) of 3.1 µM, a GI50 (UACC-62 melanoma) of 1650 nM and a TGI (UACC-62 melanoma) of 3.05 µM. It also gave a GI50 (UO-31 renal) of 2390 nM and a TGI (UO-31 renal) of 8.68 µM.
